In patent US20140113898A1, “BISARYLSULFONE AND DIALKYLARYLSULFONE COMPOUNDS AS CALCIUM CHANNEL BLOCKERS” (Zalicus Pharmaceuticals Ltd., priority 2010, published 2014):
Where two headings read alike, the source gives them in different places.

Columns and labels:
Type in all cases: cell-based
CaV2.2 = molecular target: T1, CaV2.2 (Homo sapiens, UniProt Q00975); experiment: High-throughput CaV2.2/Kir2.3 FLIPR fluorescent assay; details: Fluo-4 FLIPR, closed or inactivated state not stated, read-out: FLIPR data CaV2.2
T1 construct: expressed in transfected cells; host or cells: unnamed doxycycline-inducible cell line
Summary of the method: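 Doxycycline-induced cells moved to 29 °C on assay day and were loaded with 4.4 μM Fluo-4. They were held in 2 mM KCl (closed state) or 12.5 mM KCl (inactivated state) buffer, pH 7.4, then depolarized with 130 mM KCl. Fluorescence was read 3 min on FLIPR, and IC50 was obtained from logistic fits.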

CaV3.1 = molecular target: T2, CaV3.1 (Homo sapiens, UniProt O43497); experiment: High-throughput CaV3.1 T-type FLIPR fluorescent assay; details: Fluo-4 FLIPR
T2 construct: expressed in transfected cells; host or cells: unnamed doxycycline-inducible cell line
T2 sequence (O43497 whole entry): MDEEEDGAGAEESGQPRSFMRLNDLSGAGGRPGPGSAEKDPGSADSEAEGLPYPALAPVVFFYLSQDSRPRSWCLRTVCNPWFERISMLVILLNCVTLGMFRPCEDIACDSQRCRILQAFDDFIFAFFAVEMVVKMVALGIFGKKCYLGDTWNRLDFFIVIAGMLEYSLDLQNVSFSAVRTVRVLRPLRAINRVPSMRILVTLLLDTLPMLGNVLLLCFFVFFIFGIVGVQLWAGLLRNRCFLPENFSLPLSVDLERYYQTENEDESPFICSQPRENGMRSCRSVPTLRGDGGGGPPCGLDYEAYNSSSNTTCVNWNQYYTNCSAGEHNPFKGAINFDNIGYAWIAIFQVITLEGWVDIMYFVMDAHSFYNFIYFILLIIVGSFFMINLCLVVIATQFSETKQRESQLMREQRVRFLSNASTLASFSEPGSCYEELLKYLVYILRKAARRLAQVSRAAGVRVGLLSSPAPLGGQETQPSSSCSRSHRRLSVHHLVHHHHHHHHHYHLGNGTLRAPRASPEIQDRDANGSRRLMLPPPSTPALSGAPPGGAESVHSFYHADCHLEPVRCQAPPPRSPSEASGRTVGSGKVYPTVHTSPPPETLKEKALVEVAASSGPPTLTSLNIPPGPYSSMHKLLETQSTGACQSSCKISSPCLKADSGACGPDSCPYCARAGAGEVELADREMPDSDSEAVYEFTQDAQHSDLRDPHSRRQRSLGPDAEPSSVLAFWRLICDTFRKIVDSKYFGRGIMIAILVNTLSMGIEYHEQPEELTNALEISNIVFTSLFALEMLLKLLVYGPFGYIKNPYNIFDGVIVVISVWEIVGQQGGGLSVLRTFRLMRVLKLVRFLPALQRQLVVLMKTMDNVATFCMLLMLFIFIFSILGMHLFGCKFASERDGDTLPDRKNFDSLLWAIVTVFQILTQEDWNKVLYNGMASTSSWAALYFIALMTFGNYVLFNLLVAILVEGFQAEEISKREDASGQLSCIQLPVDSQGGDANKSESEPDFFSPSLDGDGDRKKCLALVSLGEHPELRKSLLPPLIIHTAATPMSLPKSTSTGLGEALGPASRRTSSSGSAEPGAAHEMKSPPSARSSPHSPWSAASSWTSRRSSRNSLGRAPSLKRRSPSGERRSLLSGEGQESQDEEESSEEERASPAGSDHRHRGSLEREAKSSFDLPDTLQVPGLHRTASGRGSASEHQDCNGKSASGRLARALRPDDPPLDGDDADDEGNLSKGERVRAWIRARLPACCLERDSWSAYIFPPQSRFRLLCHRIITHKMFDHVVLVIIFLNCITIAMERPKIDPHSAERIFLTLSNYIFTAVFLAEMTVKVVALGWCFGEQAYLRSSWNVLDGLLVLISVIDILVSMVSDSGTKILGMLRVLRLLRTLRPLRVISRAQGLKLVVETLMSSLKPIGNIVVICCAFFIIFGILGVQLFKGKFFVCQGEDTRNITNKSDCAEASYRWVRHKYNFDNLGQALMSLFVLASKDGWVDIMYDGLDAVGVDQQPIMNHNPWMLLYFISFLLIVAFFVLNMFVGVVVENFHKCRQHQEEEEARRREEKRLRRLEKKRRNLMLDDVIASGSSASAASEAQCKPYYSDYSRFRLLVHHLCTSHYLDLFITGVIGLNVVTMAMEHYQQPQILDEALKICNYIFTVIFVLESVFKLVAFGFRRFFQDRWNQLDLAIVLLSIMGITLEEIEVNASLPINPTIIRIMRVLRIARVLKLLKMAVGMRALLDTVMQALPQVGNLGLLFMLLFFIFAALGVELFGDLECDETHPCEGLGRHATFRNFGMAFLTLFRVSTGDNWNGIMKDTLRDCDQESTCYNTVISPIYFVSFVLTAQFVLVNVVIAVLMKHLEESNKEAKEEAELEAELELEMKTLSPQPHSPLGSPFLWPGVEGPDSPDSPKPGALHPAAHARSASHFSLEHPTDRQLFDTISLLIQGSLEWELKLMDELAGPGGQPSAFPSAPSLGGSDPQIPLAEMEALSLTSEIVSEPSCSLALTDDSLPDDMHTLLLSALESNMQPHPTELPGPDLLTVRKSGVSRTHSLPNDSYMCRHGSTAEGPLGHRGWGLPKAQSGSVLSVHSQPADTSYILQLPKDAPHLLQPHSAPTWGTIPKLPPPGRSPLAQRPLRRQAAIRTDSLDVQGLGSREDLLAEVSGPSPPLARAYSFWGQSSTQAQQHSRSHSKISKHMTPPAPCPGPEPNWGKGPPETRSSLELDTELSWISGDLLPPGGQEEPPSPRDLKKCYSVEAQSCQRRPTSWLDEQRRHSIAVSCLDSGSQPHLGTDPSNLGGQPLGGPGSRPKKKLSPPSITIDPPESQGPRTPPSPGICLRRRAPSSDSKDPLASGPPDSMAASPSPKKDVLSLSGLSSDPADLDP
Protocol: (§1) Cells were plated in 384-well, clear-bottom, black-walled, poly-D-lysine coated plates (Becton Dickinson, Franklin Lake, N.J.) 2 days prior to use in the FLIPR assay. 100 μL of cells (2.0×10^6 cell/mL) containing doxycyline (Sigma-Aldrich, 1.5 μg/mL; to induce channel expression) were added to each well using a Multidrop (Thermo Scientific, Waltham, Mass.) and were maintained in 5% CO2 incubator at 37° C. On the morning of the assay, cells were transferred to a 5% CO2 incubator at 29° C.
Cells were washed with a wash buffer containing (in mM): 118 NaCl, 18.4 HEPES, 11.7 D-glucose, 0.05 CaCl2, 0.5 MgSO4, 1 KCl, and 1.2 KH2PO4, with the pH adjusted to 7.2 with NaOH. 4.4 μM of the fluorescent indicator dye, Fluo-4 (Invitrogen), prepared in pluronic acid
(Sigma-Aldrich), was loaded into the wells and incubated for 45 minutes at 29° C. in 5% CO2. Cells were then rinsed with the following low Ca^2+ buffer (in mM): 0.34 Na2HPO4, 4.2 NaHCO3, 0.44 KH2PO4, 0.41 MgSO4, 0.49 MgCl2-6H2O, 20 HEPES, 5.5 D-Glucose, 137 NaCl, 5.3 KCl, and 0.001 CaCl2, with 0.1% BSA and the pH adjusted to 7.2 with NaOH. Concentration-dependent response curves were generated from 5 mM stock solutions prepared in DMSO (Sigma-Aldrich) and diluted in the buffer containing low Ca^2+ and incubated for 20 minutes at 29° C. in 5% CO2. Calcium entry was evoked with an addition of (in mM): 0.34 Na2HPO4, 4.2 NaHCO3, 0.44 KH2PO4, 0.41 MgSO4, 0.49 MgCl2-6H2O, 20 HEPES, 5.5 D-Glucose, 137 NaCl, 5.3 KCl, and 6 CaCl2, with 0.1% BSA and the pH adjusted to 7.2 with NaOH. A change in the Fluo-4 fluorescence signal was assessed using FLIPR^TETRA™ instrument (Molecular Devices, Sunnyvale, Calif.) for 3 minutes following the elevation of extracellular KCl using an illumination wavelength of 470-495 nm with emissions recorded at 515-575 nm.
(§2) Concentration-dependent response curves were obtained by comparing the fluorescence signal in the presence of compound and fitted with a logistic function (1) to obtain the concentration that inhibited 50% (IC50) of the RLU signal using OriginPro v.7.5 software (OriginLab, Northampton, Mass.).
(§3) To assess the quality of the FLIPR assays the Z-factor (2) was used to quantify the suitability of the assay conditions using the following equation: […]
(§4) Data are expressed as mean and standard deviation (SD).

CaV3.2 = molecular target: T3, CaV3.2 (Homo sapiens, UniProt O95180); experiment: High-throughput CaV3.2/Kir2.3 T-type FLIPR fluorescent assay; details: Fluo-4 FLIPR, closed or inactivated state not stated
T3 construct: expressed in transfected cells; host or cells: unnamed doxycycline-inducible cell line
T3 sequence (O95180 whole entry): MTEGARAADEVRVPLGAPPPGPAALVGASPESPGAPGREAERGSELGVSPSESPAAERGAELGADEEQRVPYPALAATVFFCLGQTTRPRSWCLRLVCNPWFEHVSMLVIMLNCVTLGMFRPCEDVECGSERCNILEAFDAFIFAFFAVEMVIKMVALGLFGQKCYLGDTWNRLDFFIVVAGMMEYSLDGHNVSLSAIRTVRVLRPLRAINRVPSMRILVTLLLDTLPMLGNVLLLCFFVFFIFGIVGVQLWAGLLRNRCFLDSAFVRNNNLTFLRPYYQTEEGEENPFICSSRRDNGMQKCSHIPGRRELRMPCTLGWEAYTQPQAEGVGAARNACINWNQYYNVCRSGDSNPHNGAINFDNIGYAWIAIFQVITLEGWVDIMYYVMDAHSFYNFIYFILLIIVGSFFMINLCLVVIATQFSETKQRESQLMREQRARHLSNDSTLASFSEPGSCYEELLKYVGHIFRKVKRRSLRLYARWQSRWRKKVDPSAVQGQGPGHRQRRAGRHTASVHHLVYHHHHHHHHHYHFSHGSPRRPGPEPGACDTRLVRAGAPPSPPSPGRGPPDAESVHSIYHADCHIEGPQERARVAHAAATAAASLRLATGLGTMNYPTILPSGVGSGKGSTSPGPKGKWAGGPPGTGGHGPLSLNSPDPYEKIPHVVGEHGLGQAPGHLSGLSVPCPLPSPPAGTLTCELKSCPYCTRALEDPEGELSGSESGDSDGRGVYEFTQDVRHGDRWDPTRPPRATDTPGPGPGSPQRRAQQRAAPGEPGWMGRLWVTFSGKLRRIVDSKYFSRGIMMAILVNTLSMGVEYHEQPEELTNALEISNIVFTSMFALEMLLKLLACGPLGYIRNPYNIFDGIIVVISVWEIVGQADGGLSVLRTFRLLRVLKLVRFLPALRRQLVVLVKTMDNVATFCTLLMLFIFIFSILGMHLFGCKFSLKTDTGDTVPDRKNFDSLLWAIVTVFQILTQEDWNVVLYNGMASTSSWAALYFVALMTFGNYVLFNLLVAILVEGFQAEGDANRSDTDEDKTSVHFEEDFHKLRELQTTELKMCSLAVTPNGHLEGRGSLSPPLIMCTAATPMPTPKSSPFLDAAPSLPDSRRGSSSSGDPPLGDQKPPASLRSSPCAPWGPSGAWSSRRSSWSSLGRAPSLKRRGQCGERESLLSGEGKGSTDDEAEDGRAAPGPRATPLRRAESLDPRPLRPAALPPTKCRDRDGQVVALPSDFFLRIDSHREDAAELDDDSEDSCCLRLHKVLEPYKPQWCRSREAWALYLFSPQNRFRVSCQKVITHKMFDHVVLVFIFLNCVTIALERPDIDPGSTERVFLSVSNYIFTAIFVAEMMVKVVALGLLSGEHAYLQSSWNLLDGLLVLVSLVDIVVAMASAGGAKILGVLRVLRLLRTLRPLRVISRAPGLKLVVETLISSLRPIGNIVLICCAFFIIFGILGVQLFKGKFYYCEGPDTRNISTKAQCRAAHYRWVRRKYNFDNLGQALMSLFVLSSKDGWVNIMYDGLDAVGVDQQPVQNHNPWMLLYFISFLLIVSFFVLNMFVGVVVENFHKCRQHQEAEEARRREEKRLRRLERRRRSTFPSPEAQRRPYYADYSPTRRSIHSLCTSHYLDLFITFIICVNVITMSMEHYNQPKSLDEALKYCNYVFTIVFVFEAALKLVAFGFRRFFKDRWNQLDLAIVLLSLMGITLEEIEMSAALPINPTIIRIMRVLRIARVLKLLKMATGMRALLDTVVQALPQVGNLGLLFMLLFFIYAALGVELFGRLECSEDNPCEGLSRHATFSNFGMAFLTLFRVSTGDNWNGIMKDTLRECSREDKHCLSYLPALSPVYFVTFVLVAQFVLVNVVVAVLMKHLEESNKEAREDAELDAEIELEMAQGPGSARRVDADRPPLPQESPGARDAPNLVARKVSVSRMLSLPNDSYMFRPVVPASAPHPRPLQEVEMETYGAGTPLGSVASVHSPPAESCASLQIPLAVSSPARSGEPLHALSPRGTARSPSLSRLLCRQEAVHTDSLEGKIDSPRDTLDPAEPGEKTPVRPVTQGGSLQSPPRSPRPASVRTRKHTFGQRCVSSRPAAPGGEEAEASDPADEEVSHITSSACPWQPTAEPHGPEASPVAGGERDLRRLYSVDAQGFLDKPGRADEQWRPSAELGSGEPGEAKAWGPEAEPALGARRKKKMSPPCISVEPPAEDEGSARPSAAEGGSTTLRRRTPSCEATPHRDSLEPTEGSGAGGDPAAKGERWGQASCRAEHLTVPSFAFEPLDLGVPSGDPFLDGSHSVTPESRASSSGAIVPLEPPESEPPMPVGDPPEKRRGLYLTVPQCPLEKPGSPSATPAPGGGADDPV
Protocol: as §1, with “µL” for “μL”, “(1.2×10^6” for “(2.0×10^6”
Cells were washed with a wash buffer containing (in mM): 118 NaCl, 18.4 HEPES, 11.7 D-glucose, 2 CaCl2, 0.5 MgSO4, 4.7 KCl, and 1.2 KH2PO4, with the pH adjusted to 7.2 with
NaOH. 4.4 μM of the fluorescent indicator dye Fluo-4 (Invitrogen) prepared in pluronic acid (Sigma-Aldrich) was loaded into the wells and incubated for 45 minutes at 29° C. in 5% CO2. Cells were then rinsed with either a 2 mM KCl closed-state buffer (in mM: 138.5 NaCl, 10 HEPES, 10 D-glucose, 1 CaCl2, and 2 KCl, with the pH adjusted to 7.4 with NaOH) when performing the closed-state assay or 7.6 mM KCl inactivated-state buffer (in mM: 130.9 NaCl, 10 HEPES, 10 D-glucose, 1 CaCl2, and 7.6 mM KCl, with the pH adjusted to 7.4 with NaOH) when performing the inactivated-state assay. Concentration-dependent response curves were generated from 5 mM stock solutions prepared in DMSO (Sigma-Aldrich), diluted in either the 2 mM KCl buffer or 7.6 mM KCl buffer, and incubated for 20 minutes at 29° C. in 5% CO2. Calcium entry was evoked with an addition of either 12 mM KCl stimulation buffer (in mM: 128.5 NaCl, 10 HEPES, 10 D-glucose, 1 CaCl2, and 12 KCl, with the pH adjusted to 7.4 with NaOH) or 14.5 mM KCl stimulation buffer (in mM: 126 NaCl, 10 HEPES, 10 D-glucose, 1 CaCl2, and 14.5 KCl, with the pH adjusted to 7.4 with NaOH) for the closed-state or inactivated-state assay respectively. A change in the Fluo-4 fluorescence signal was assessed using FLIPR^TETRA™ instrument (Molecular Devices, Sunnyvale, Calif.) for 3 minutes following the elevation of extracellular KCl using an illumination wavelength of 470-495 nm with emissions recorded at 515-575 nm.
as §2, §3, §4

SMILES | IC50 (CaV2.2; Table 5) | IC50 (CaV3.1; Table 5) | IC50 (CaV3.2; Table 5) | IC50 (CaV2.2; Table 4) | IC50 (CaV3.1; Table 4) | IC50 (CaV3.2; Table 4)
O=C(NCc1cccc(S(=O)(=O)c2cccc(C(F)(F)F)c2)c1)c1cn2cc(C(F)(F)F)ccc2n1 [Compound 32, 6-(trifluoromethyl)-N-(3-((3-(trifluoromethyl)phenyl)sulfonyl)benzyl)imidazo[1,2-a]pyridine-2-carboxamide] |  |  |  | 160 nM | 1400 nM | 370 nM
CC(C)S(=O)(=O)c1cc(C(F)(F)F)cnc1C(=O)NCc1ccccc1S(=O)(=O)c1cccc(C(F)(F)F)c1 [Compound 44, 3-(isopropylsulfonyl)-5-(trifluoromethyl)-N-(2-((3-(trifluoromethyl)phenyl)sulfonyl)benzyl)picolinamide] |  |  |  | 230 nM | 720 nM | 1030 nM
CS(=O)(=O)c1nc(C(F)(F)F)ccc1C(=O)NCc1cccc(S(=O)(=O)c2cccc(C(F)(F)F)c2)c1 [Compound 21, 2-(methylsulfonyl)-6-(trifluoromethyl)-N-(3-((3-(trifluoromethyl)phenyl)sulfonyl)benzyl)nicotinamide] |  |  |  | 760 nM | 9070 nM | 2680 nM
O=C(NCc1cccc(S(=O)(=O)c2cccc(C(F)(F)F)c2)c1)c1cnc(C(F)(F)F)nc1 [Compound 26, 2-(trifluoromethyl)-N-(3-((3-(trifluoromethyl)phenyl)sulfonyl)benzyl)pyrimidine-5-carboxamide] |  |  |  | 580 nM | 1880 nM | 1180 nM
O=C1c2cc(C(F)(F)F)nn2CCN1Cc1cccc(S(=O)(=O)c2cccc(C(F)(F)F)c2)c1 [Compound 34, 2-(trifluoromethyl)-5-(3-((3-(trifluoromethyl)phenyl)sulfonyl)benzyl)-6,7-dihydropyrazolo[1,5-a]pyrazin-4(5H)-one] |  |  |  | 590 nM | 1630 nM | 970 nM
O=C(NCc1ccc(S(=O)(=O)c2cccc(C(F)(F)F)c2)cn1)c1ccc(Cl)c(F)c1 [Compound 88, 4-chloro-3-fluoro-N-((5-((3-(trifluoromethyl)phenyl)sulfonyl)pyridin-2-yl)methyl)benzamide] |  |  |  | 810 nM | 900 nM | 810 nM
O=C(NCc1cc(S(=O)(=O)c2cccc(C(F)(F)F)c2)ccn1)[C@@H]1C[C@@H](C2CCCCC2)CN1 [Compound 118, (2S,4S)-4-cyclohexyl-N-((4-((3-(trifluoromethyl)phenyl)sulfonyl)pyridin-2-yl)methyl)pyrrolidine-2-carboxamide] |  |  |  | 760 nM | 4760 nM | 2400 nM
CS(=O)(=O)c1cc(C(F)(F)F)ccc1C(=O)NCc1ccc(S(=O)(=O)c2cccc(C(F)(F)F)c2)cn1 [Compound 99, 2-(methylsulfonyl)-4-(trifluoromethyl)-N-((5-((3-(trifluoromethyl)phenyl)sulfonyl)pyridin-2-yl)methyl)benzamide] |  |  |  | 910 nM | 1270 nM | 1320 nM
O=C(NCc1ccccc1S(=O)(=O)c1cccc(C(F)(F)F)c1)c1ccc(F)c(Cl)c1 [Compound 52, 3-chloro-4-fluoro-N-(2-((3-(trifluoromethyl)phenyl)sulfonyl)benzyl)benzamide] |  |  |  | 740 nM | 680 nM | 1300 nM
CS(=O)(=O)c1cc(C(F)(F)F)ccc1C(=O)NCc1ccc(S(=O)(=O)c2cccc(C(F)(F)F)c2)cc1 [Compound 11, 2-(methylsulfonyl)-4-(trifluoromethyl)-N-(4-((3-(trifluoromethyl)phenyl)sulfonyl)benzyl)benzamide] |  |  |  | 410 nM | 1070 nM | 590 nM
N[C@@H](C(=O)NCc1ccc(S(=O)(=O)c2cccc(C(F)(F)F)c2)cc1)c1ccccc1 [Compound 63, (R)-2-amino-2-phenyl-N-(4-((3-(trifluoromethyl)phenyl)sulfonyl)benzyl)acetamide] |  |  |  | 440 nM | 580 nM | 

Next, values leading:

IC50 (CaV2.2; Table 5) | IC50 (CaV3.1; Table 5) | IC50 (CaV3.2; Table 5) | IC50 (CaV2.2; Table 4) | IC50 (CaV3.1; Table 4) | IC50 (CaV3.2; Table 4) | SMILES
1160 nM | 8690 nM | 7580 nM |  |  |  | CC(C)(C(=O)N1CCN(c2cc(Cl)cc(Cl)c2)CC1)S(=O)(=O)c1cccc(C(F)(F)F)c1 [Compound 134, 1-(4-(3,5-dichlorophenyl)piperazin-1-yl)-2-methyl-2-((3-(trifluoromethyl)phenyl)sulfonyl)propan-1-one]
410 nM | 8220 nM | 5090 nM |  |  |  | CC(C)(C(=O)NCC(O)c1ccc(C(F)(F)F)cc1)S(=O)(=O)c1cccc(C(F)(F)F)c1 (stereo not shown) [Compound 140, N-(2-hydroxy-2-(4-(trifluoromethyl)phenyl)ethyl)-2-methyl-2-((3-(trifluoromethyl)phenyl)sulfonyl)propanamide]
750 nM | 4250 nM | 5620 nM |  |  |  | CC(C)(C(=O)NCc1cccc(C(F)(F)F)c1)S(=O)(=O)c1cccc(C(F)(F)F)c1 [Compound 124, 2-methyl-N-(3-(trifluoromethyl)benzyl)-2-((3-(trifluoromethyl)phenyl)sulfonyl)propanamide]
790 nM | 6660 nM | 5210 nM |  |  |  | CC(C)(C(=O)NCCc1c[nH]c2ccc(F)cc12)S(=O)(=O)c1cccc(C(F)(F)F)c1 [Compound 131, N-(2-(5-fluoro-1H-indol-3-yl)ethyl)-2-methyl-2-((3-(trifluoromethyl)phenyl)sulfonyl)propanamide]
400 nM | 630 nM | 350 nM |  |  |  | CC(C)(C(=O)NCc1ccccc1S(=O)(=O)c1cccc(C(F)(F)F)c1)S(=O)(=O)c1cccc(C(F)(F)F)c1 [Compound 227, 2-methyl-2-((3-(trifluoromethyl)phenyl)sulfonyl)-N-(2-((3-(trifluoromethyl)phenyl)sulfonyl)benzyl)propanamide]
1020 nM | 5690 nM |  |  |  |  | CC(C)(C(=O)Nc1ccc(Oc2ccc(C(F)(F)F)cn2)nc1)S(=O)(=O)c1cccc(C(F)(F)F)c1 [Compound 120, 2-methyl-2-((3-(trifluoromethyl)phenyl)sulfonyl)-N-(6-((5-(trifluoromethyl)pyridin-2-yl)oxy)pyridin-3-yl)propanamide]
